In patent US20130040933A1, “AZAINDOLES AS JANUS KINASE INHIBITORS” (priority 2010, published 2013):
pIC50: −log10 of the molar value.

molecular target: T1, rhJAK3 (Homo sapiens, UniProt P52333); test: JAK Biochemical HTRF Assay (JAK3); conditions: recombinant purified GST-tagged catalytic domain, HTRF format, [ATP] 1.7 μM; read-out: JAK3 IC50
T1 construct: recombinant purified GST-tagged catalytic domain for each enzyme; purchased Invitrogen PV3855
T1 sequence (P52333 822-1111 limits assumed): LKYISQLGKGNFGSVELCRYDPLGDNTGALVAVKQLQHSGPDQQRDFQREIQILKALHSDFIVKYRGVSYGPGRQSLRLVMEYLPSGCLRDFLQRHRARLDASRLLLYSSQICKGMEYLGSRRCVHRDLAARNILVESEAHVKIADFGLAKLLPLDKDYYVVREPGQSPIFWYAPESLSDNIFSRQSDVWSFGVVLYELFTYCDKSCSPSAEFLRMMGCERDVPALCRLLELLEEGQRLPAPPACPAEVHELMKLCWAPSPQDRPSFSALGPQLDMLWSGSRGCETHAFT

Row | pIC50 | Compound
1 | 7.00 to 8.00 | C[C@@H](Nc1cncc(-c2c[nH]c3ncc(CN4CCC(F)C4)cc23)n1)C(=O)NCC(F)(F)F (stereo partly drawn) [Example 15-8, N^2-(6-{5-[(3-fluoropyrrolidin-1-yl)-methyl]-1H-pyrrolo[2,3-b]pyridin-3-yl}-pyrazin-2-yl)-N-(2,2,2-trifluoroethyl)-D-alaninamide]
2 | ≥ 9.00 | C[C@@H](Nc1cncc(-c2c[nH]c3ncc(-c4cnn5c4CCC5)cc23)n1)C(=O)NCC(F)(F)F [Example 15-9, N^2-{6-[5-(5,6-dihydro-4H-pyrrolo[1,2-b]pyrazol-3-yl)-1H-pyrrolo[2,3-b]-pyridin-3-yl]pyrazin-2-yl}-N-(2,2,2-trifluoroethyl)-D-alaninamide]
3 | ≥ 9.00 | C[C@@H](Nc1cncc(-c2c[nH]c3ncc(-c4cccc(N5CCOCC5)c4)cc23)n1)C(=O)NCC(F)(F)F [Example 15-10, N^2-{6-[5-(3-morpholin-4-ylphenyl)-1H-pyrrolo[2,3-b]pyridin-3-yl]pyrazin-2-yl}-N-(2,2,2-trifluoroethyl)-D-alaninamide]
4 | ≥ 9.00 | CC(c1cccc(-c2cnc3[nH]cc(-c4cncc(N[C@H](C)C(=O)NCC(F)(F)F)n4)c3c2)c1)N1CCCC1 (stereo partly drawn) [Example 15-11, N^2-(6-{5-[3-(1-pyrrolidin-1-ylethyl)-phenyl]-1H-pyrrolo[2,3-b]pyridin-3-yl}pyrazin-2-yl)-N-(2,2,2-trifluoroethyl)-D-alaninamide]
5 | ≥ 9.00 | C[C@@H](Nc1cncc(-c2c[nH]c3ncc(-c4cccc(CN5CCOCC5)c4)cc23)n1)C(=O)NCC(F)(F)F [Example 15-12, N^2-(6-{5-[3-(morpholin-4-yl-methyl)phenyl]-1H-pyrrolo[2,3-b]-pyridin-3-yl}pyrazin-2-yl)-N-(2,2,2-trifluoroethyl)-D-alaninamide]
6 | 8.00 to 9.00 | C[C@@H](Nc1cncc(-c2c[nH]c3ncc(-c4ccccc4CN(C)C)cc23)n1)C(=O)NCC(F)(F)F [Example 15-13, N^2-[6-(5-{2-[(dimethylamino)methyl]-phenyl}-1H-pyrrolo(2,3-b]pyridin-3-yl)pyrazin-2-yl]-N-(2,2,2-trifluoroethyl)-D-alaninamide]
7 | 7.00 to 8.00 | C[C@@H](Nc1cncc(-c2c[nH]c3ncc(-c4ccccc4OC(F)(F)F)cc23)n1)C(=O)NCC(F)(F)F [Example 15-14, N-(2,2,2-trifluoroethyl)-N^2-(6-{5-[2-(trifluoromethoxy)phenyl]-1H-pyrrolo[2,3-b]pyridin-3-yl}pyrazin-2-yl)-D-alaninamide]
8 | ≥ 9.00 | C[C@@H](Nc1cncc(-c2c[nH]c3ncc(C4=CCOCC4)cc23)n1)C(=O)NCC(F)(F)F [Example 15-15, N^2-{6-[5-(3,6-dihydro-2H-pyran-4-yl)-1H-pyrrolo[2,3-b]pyridin-3-yl]pyrazin-2-yl}-N-(2,2,2-trifluoroethyl)-D-alaninamide]
9 | ≥ 9.00 | C[C@@H](Nc1cncc(-c2c[nH]c3ncc(C4=CCCOC4)cc23)n1)C(=O)NCC(F)(F)F [Example 15-16, N^2-{6-[5-(5,6-dihydro-2H-pyran-3-yl)-1H-pyrrolo[2,3-b]pyridin-3-yl]pyrazin-2-yl}-N-(2,2,2-trifluoroethyl)-D-alaninamide]
10 | ≥ 9.00 | C[C@@H](Nc1cncc(-c2c[nH]c3ncc(-c4ccc(N5CCCC5)cc4)cc23)n1)C(=O)NCC(F)(F)F [Example 15-17, N^2-{6-[5-(4-pyrrolidin-1-ylphenyl)-1H-pyrrolo[2,3-b]pyridin-3-yl]pyrazin-2-yl}-N-(2,2,2-trifluoroethyl)-D-alaninamide]
11 | ≥ 9.00 | COc1cncc(-c2cnc3[nH]cc(-c4cncc(N[C@H](C)C(=O)NCC(F)(F)F)n4)c3c2)c1 [Example 15-18, N^2-{6-[5-(5-methoxypyridin-3-yl)-1H-pyrrolo[2,3-b]pyridin-3-yl]pyrazin-2-yl}-N-(2,2,2-trifluoroethyl)-D-alaninamide]
12 | ≥ 9.00 | C[C@@H](Nc1cncc(-c2c[nH]c3ncc(-c4cncc(C#N)c4)cc23)n1)C(=O)NCC(F)(F)F [Example 15-19, N^2-{6-[5-(5-cyanopyridin-3-yl)-1H-pyrrolo[2,3-b]pyridin-3-yl]pyrazin-2-yl}-N-(2,2,2-trifluoroethyl)-D-alaninamide]
13 | ≥ 9.00 | C[C@@H](Nc1cncc(-c2c[nH]c3ncc(-c4cccnc4F)cc23)n1)C(=O)NCC(F)(F)F [Example 15-20, N^2-{6-[5-(2-fluoropyridin-3-yl)-1H-pyrrolo[2,3-b]pyridin-3-yl)pyrazin-2-yl}-N-(2,2,2-trifluoroethyl)-D-alaninamide]
14 | ≥ 9.00 | CC(C)(Nc1cncc(-c2c[nH]c3ncc(C4CC4)cc23)n1)C(=O)NCC(F)(F)F [Example 15-21, N2-[6-(5-cyclopropyl-1H-pyrrolo[2,3-b]pyridin-3-yl)pyrazin-2-yl]-2-methyl-N-(2,2,2-trifluoroethyl)alaninamide]
15 | 8.00 to 9.00 | CC(C)[C@@H](Nc1cncc(-c2c[nH]c3ncc(F)cc23)n1)C(=O)NCC(F)(F)F [Example 16-1, N^2-[6-(5-fluoro-1H-pyrrolo[2,3-b]pyridin-3-yl)pyrazin-2-yl]-N-(2,2,2-trifluoroethyl)-D-valinamide]
16 | ≥ 9.00 | CC(C)[C@@H](Nc1cncc(-c2c[nH]c3ncc(C#N)cc23)n1)C(=O)NCC(F)(F)F [Example 16-2, N^2-[6-(5-cyano-1H-pyrrolo[2,3-b]pyridin-3-yl)pyrazin-2-yl]-N-(2,2,2-trifluoroethyl)-D-valinamide]
17 | 8.00 to 9.00 | COC(=O)c1cnc2[nH]cc(-c3cncc(N[C@@H](C(=O)NCC(F)(F)F)C(C)C)n3)c2c1 [Example 16-3, Methyl 3-[6-({(2R)-3-methyl-1-oxo-1-[(2,2,2-trifluoroethyl)amino]butan-2-yl}-amino)pyrazin-2-yl]-1H-pyrrolo[2,3-b]-pyridine-5-carboxylate]
18 | ≥ 9.00 | CC(C)(Nc1cncc(-c2c[nH]c3ncc(F)cc23)n1)C(=O)NCC(F)(F)F [Example 16-5, N^2-[6-(5-fluoro-1H-pyrrolo[2,3-b]pyridin-3-yl)pyrazin-2-yl]-2-methyl-N-(2,2,2-trifluoroethyl)alaninamide]

same assay, conditions: recombinant purified GST-tagged catalytic domain, HTRF format, [ATP] 1.7 μM; read-out: rhJAK3 IC50

Row | Compound | pIC50
19 | (2R)-1-[6-(5-chloro-1H-pyrrolo[2,3-b]- pyridin-3-yl)pyrazin-2-yl]-N-(2,2,2- trifluoroethyl)piperazine-2-carboxamide [Example 4-1] | 7.00 to 8.00
